Results as given in patent publication US11000542B2, “Treatment and prevention of the common cold using povidone-iodine” (FIREBRICK PHARMA LIMITED, priority 2014, dated 2021).

Key:
[1] = Intranasal tolerability of aqueous PVP-I preparations (inventors' finding); format: in vivo, human; details: repeated, frequent use
Description: With respect to the intranasal tolerability of PVP-I, as distinct from ciliotoxicity, the present inventors have discovered that when the concentration of PVP-I in aqueous preparations is greater than 1.0%, the preparation may be irritating to the nasal mucosa in some individuals and not suitable for repeated, frequent and general use, as would be required in the effective treatment or prevention of the common cold. On this consideration, a preferred composition for nasal use is a concentration of PVP-I at or below 1.0%.

granulocytes = details: Van den Broek et al (1982); cited from earlier work
nasal cilia = details: Kramer et al (2002), cited from earlier work
[2] = test system: herpes simplex virus (HSV); details: Wutzler et al (2002); cited from earlier work
[3] = typical; cited from earlier work
common cold = details: throat gargle; cited from earlier work
monocytes = details: Van den Broek et al (1982); cited from earlier work
human influenza virus = details: very low concentrations; Reimer et al (2002); cited from earlier work
adenovirus = details: Reimer et al (2002), Wutzler et al (2002); cited from earlier work
human rhinovirus (HRV) = details: cited from earlier work
[4] = test system: colds due to picornaviruses; details: cited from earlier work

Row | Compound | PVP-I concentration in aqueous preparations that may be irritating to the nasal mucosa in some individuals [1] | PVP-I concentration at which virtually all granulocytes destroyed (granulocytes) | PVP-I concentration significantly reducing the viability of granulocytes (granulocytes) | PVP-I concentration toxic to the nasal cilia (ciliotoxic) (nasal cilia; Reimer et al (2002): complete loss of ciliary function) | PVP-I concentration not ciliotoxic / suitable for use in the nose (nasal cilia; Reimer et al (2002)) | exposure for a microbicidal effect (4 log reduction) [2] | free iodine in PVP-I solutions [3] | effect of gargling on cold symptoms and incidence (common cold) | PVP-I concentration substantially degrading monocytes (monocytes) | exposure for a 4 log10 reduction in viable virus count (human influenza virus) | exposure required for a 4 log reduction (microbicidal effect) (adenovirus) | log reduction in HRV (human rhinovirus (HRV); 30 second exposure, Wutzler et al (2002)) | reduction in viable virus count (human rhinovirus (HRV); 30 seconds exposure, any concentration, Reimer et al (2002)) | exposure required for a 4 log reduction (microbicidal effect) (human rhinovirus (HRV); in vitro, Reimer et al (2002), Wutzler et al (2002)) | microbicidal effect against HRV (human rhinovirus (HRV); maximum exposure period tested 10 minutes, Kawana et al (1997)) | cytochrome P450 induction ([4]; FDA Advisory Committee review of 2002 NDA) | reduction in cold duration ([4]; Phase III data) | Time to Alleviation of Illness (TAI), cold duration ([4]; phase three study, Hayden et al (2003))
1 | povidone-iodine [PVP-I] | greater than 1.0% | above 0.1% | above 0.05% | ≥ 2.5% | ≤ 1.25% | 30 seconds | less than 30 ppm | no significant effect on nasal cold symptoms or bronchial complications, and no benefit in terms of reducing the incidence of the common cold | above 0.1% | ≤ 30 second | 5 minutes | 1.1 log | ~1 log | 30 minutes | failed to produce a microbicidal effect against HRV | – | – | –
2 | Cc1cc(CCCOc2c(C)cc(-c3noc(C(F)(F)F)n3)cc2C)on1 [pleconaril] | – | – | – | – | – | – | – | – | – | – | – | – | – | – | – | a risk of cytochrome P450 induction | one | 6.3 days
